Reference: patent US8802693B1, “Azaadamantane derivatives and methods of use” (priority 2011, dated 2014)

What was measured:
Type in all cases: in vivo, human
[1] = tested on: subjects with mild-to-moderate Alzheimer's disease; test: Phase 2a Clinical Study A: ADAS-cog (13-item) total score; conditions: for ADAS-cog (13-Item) Total Score Observed Mean (SD) Final: final evaluation, 12-week treatment
Method: (§1) A Phase 2a proof-of-concept (POC) study in subjects with mild-to-moderate dementia of Alzheimer type was conducted. The study was a randomized, double-blind, placebo- and active-controlled, multicenter study designed to evaluate the efficacy and safety of Compound A (ABT-126) in subjects diagnosed with mild-to-moderate Alzheimer's disease, defined as meeting National Institute of Neurological and Communicative Disorders and Stroke/Alzheimer's Disease and Related Disorders Association (NINCDS/ADRDA) criteria for probable AD. […] Subjects were randomized in an equal ratio to one of four treatment groups (placebo, 5 mg Compound A, 25 mg Compound A, or donepezil) for a 12-week treatment period. The primary efficacy measure was the Alzheimer's Disease Assessment Scale—cognitive subscale (ADAS-Cog). Subjects were generally in good health and any chronic medical conditions were stable during the time of screening. Subjects were not taking other medication for Alzheimer's disease.
(§2) The study was a Phase 2, randomized, double-blind, placebo- and active-controlled, multicenter study designed to evaluate the dose-response relationship and safety of two doses of Compound A in subjects diagnosed with mild to moderate AD, defined as meeting NINCDS/ADRDA criteria for probable AD.
(§3) The study consisted of a Screening Period of up to 28 days, a 12-week treatment period, and a post-treatment period. The screening period consisted of three visits: Screening Visit 1, Screening Visit 2, and Day −1. Upon completion of Day −1 procedures, eligible subjects were randomized through an Interactive Voice Response/Interactive Web-Based (IVR/IWB) system. Subjects were randomized in an equal ratio to one of four treatment groups (placebo, 5 mg Compound A, 25 mg Compound A, or donepezil).
(§4) Each subject was instructed to take study drug once-daily in the morning for 12 weeks. Subjects randomized to donepezil took 5 mg donepezil QD for the first 4 weeks and began 10 mg donepezil QD at Week 4 through the remainder of the study. The subject and investigator were blinded to the treatment assignment throughout the study.
(§5) The primary efficacy measure was the Alzheimer's Disease Assessment Scale-cognitive subscale (ADAS-cog). The ADAS-cog was designed to assess the cognitive impairments most common in AD. The ADAS-cog is a subscale of the ADAS, which focuses on cognitive functioning and memory. Two versions were used in the study: an 11-item version and an expanded (13-item) version. The 11-item version of the ADAS-cog was the primary endpoint measure in this study. ADAS-Cog (13-item) was administered throughout the study and the primary efficacy variable was considered the change from baseline to final evaluation on the ADAS-cog total score (11-item).
The 13-item ADAS-cog is comprised of the 11-item ADAS-cog with two additional items (Delayed Word Recall and a Number Cancellation Test) that are designed to assess attention and concentration. The Delayed Word Recall Test (range from 0 to 10) was an addition to the Word Recall Test to enhance sensitivity of the instrument in assessing cognition functioning on patients with mild AD. The Number Cancellation Test (range from 0 to 5) was reliable and sensitive to a broad range of dementia severity, and was recommended as a useful addition to the 11-item ADAS-cog. The total score of the 13-item ADAS-cog ranges from 0 to 85, with a higher score representing greater impairment. The ADAS-cog (13-item) was administered by a certified rater at Screening Visit 1, Screening Visit 2, and Day-1, as well as Weeks 4, 8, and 12 during the study.

[2] = tested on: subjects with mild-to-moderate Alzheimer's disease; test: Phase 2a Clinical Study A: ADAS-cog (11-item) total score; conditions: for ADAS-cog (11-Item) Total Score Observed Mean (SD) Final: final evaluation, 12-week treatment; for efficacy in treatment of core symptoms of Alzheimer's disease in human patients (summary in words): Phase 2a study, dose not stated
Method: as §1, §2, §3, §4
(§6) Subjects completed 4 visits during the treatment period at Week 2, Week 4, Week 8 and Week 12. Subjects returned to the study site for a follow-up visit approximately 2 weeks after the Week 12 or premature discontinuation visit for a safety evaluation. In addition, study site personnel contacted each subject's caregiver by telephone approximately 30 days after the subject's last dose of study drug to ascertain the subject's safety status.
as §5
The 11-item ADAS-cog includes the following tests: Word Recall, Commands, Constructional Praxis, Naming Objects and Fingers, Ideational Praxis, Orientation, Word Recognition, Remembering Test Instructions, Comprehension of Spoken Language, Spoken Language Ability, and Word Finding Difficulty. The total score of the 11-item ADAS-cog ranges from 0 to 70, with a higher score representing greater impairment.
The primary efficacy variable was the change from baseline to the final observation on the ADAS-cog (11-item) total score. The primary efficacy analysis was carried out using an ANCOVA model with treatment and study site as the main effects and baseline score as the covariate. […]

[3] = tested on: subjects with mild-to-moderate Alzheimer's disease; test: Phase 2a Clinical Study A: safety and tolerability
Method: as §1, §2, §4, §6

[4] = 5 mg QD, ANCOVA, baseline to final evaluation
[5] = 25 mg QD, ANCOVA, baseline to final evaluation

For c1ccc(-c2nnc(O[C@@H]3C4CC5C[C@H]3CN(C5)C4)s2)cc1 [Compound A, (4s)-4-(5-phenyl-1,3,4-thiadiazol-2-yloxy)-1-azatricyclo[3.3.1.1^3,7]decane], the “ADAS-cog (13-Item) Total Score Difference From Placebo LS Mean (SE) of Difference” value [1, 4] was −0.13 (1.03), the “ADAS-cog (13-Item) Total Score LS Mean (SE) of Change” value [1, 4] was −0.90 (0.73) and the “ADAS-cog (13-Item) Total Score Observed Mean (SD) change” value ([1]; 5 mg QD, Change to Week 4) was −0.67 (4.31). For the same molecule, the “ADAS-cog (13-Item) Total Score Observed Mean (SD) change” value ([1]; 5 mg QD, Change to Week 8) was −0.76 (5.88), the “ADAS-cog (13-Item) Total Score Observed Mean (SD) change” value ([1]; 5 mg QD, Change to Week 12) was −1.20 (6.36) and the “ADAS-cog (13-Item) Total Score Difference From Placebo LS Mean (SE) of Difference” value ([1]; 5 mg QD, MMRM, Week 4) was −0.30 (0.73). The “ADAS-cog (13-Item) Total Score LS Mean (SE) of Change from Baseline” value ([1]; 5 mg QD, MMRM, Week 4) was −0.30 (0.52), the “ADAS-cog (13-Item) Total Score Difference From Placebo LS Mean (SE) of Difference” value ([1]; 5 mg QD, MMRM, Week 8) was −0.29 (0.95) and the “ADAS-cog (13-Item) Total Score LS Mean (SE) of Change from Baseline” value ([1]; 5 mg QD, MMRM, Week 8) was −0.64 (0.67). For the same molecule, the “ADAS-cog (13-Item) Total Score Difference From Placebo LS Mean (SE) of Difference” value ([1]; 5 mg QD, MMRM, Week 12) was 0.15 (1.04), the “ADAS-cog (13-Item) Total Score LS Mean (SE) of Change from Baseline” value ([1]; 5 mg QD, MMRM, Week 12) was −0.99 (0.73) and the “ADAS-cog (13-Item) Total Score Observed Mean (SD) Final” value ([1]; 5 mg QD) was 35.92 (12.07). For the same molecule, the “ADAS-cog (13-Item) Total Score Difference From Placebo LS Mean (SE) of Difference” value [1, 5] was −1.83 (1.05), the “ADAS-cog (13-Item) Total Score LS Mean (SE) of Change” value [1, 5] was −2.60 (0.75) and the “ADAS-cog (13-Item) Total Score Observed Mean (SD) change” value ([1]; 25 mg QD, Change to Week 4) was −2.38 (4.72). The “ADAS-cog (13-Item) Total Score Observed Mean (SD) change” value ([1]; 25 mg QD, Change to Week 8) was −2.78 (6.05), the “ADAS-cog (13-Item) Total Score Observed Mean (SD) change” value ([1]; 25 mg QD, Change to Week 12) was −2.89 (6.77) and the “ADAS-cog (13-Item) Total Score Difference From Placebo LS Mean (SE) of Difference” value ([1]; 25 mg QD, MMRM, Week 4) was −2.13 (0.75). The “ADAS-cog (13-Item) Total Score LS Mean (SE) of Change from Baseline” value ([1]; 25 mg QD, MMRM, Week 4) was −2.13 (0.53), the “ADAS-cog (13-Item) Total Score Difference From Placebo LS Mean (SE) of Difference” value ([1]; 25 mg QD, MMRM, Week 8) was −2.06 (0.98) and the “ADAS-cog (13-Item) Total Score LS Mean (SE) of Change from Baseline” value ([1]; 25 mg QD, MMRM, Week 8) was −2.42 (0.70). The “ADAS-cog (13-Item) Total Score Difference From Placebo LS Mean (SE) of Difference” value ([1]; 25 mg QD, MMRM, Week 12) was −1.61 (1.08), the “ADAS-cog (13-Item) Total Score LS Mean (SE) of Change from Baseline” value ([1]; 25 mg QD, MMRM, Week 12) was −2.74 (0.77) and the “ADAS-cog (13-Item) Total Score Observed Mean (SD) Final” value ([1]; 25 mg QD) was 38.08 (13.81). The “ADAS-cog (11-Item) Total Score Difference From Placebo LS Mean (SE) of Difference” value [2, 4] was −0.08, the “ADAS-cog (11-Item) Total Score LS Mean (SE) of Change” value [2, 4] was −0.76 (0.64) and the “ADAS-cog (11-Item) Total Score Observed Mean (SD) change” value ([2]; 5 mg QD, Change to Week 4) was −0.36 (4.01). The “ADAS-cog (11-Item) Total Score Observed Mean (SD) change” value ([2]; 5 mg QD, Change to Week 8) was −0.58 (4.83), the “ADAS-cog (11-Item) Total Score Observed Mean (SD) change” value ([2]; 5 mg QD, Change to Week 12) was −1.01 (5.50) and the “ADAS-cog (11-Item) Total Score Difference From Placebo LS Mean (SE) of Difference” value ([2]; 5 mg QD, MMRM, Week 4) was 0.03 (0.65). For the same molecule, the “ADAS-cog (11-Item) Total Score LS Mean (SE) of Change from Baseline” value ([2]; 5 mg QD, MMRM, Week 4) was −0.06 (0.47), the “ADAS-cog (11-Item) Total Score Difference From Placebo LS Mean (SE) of Difference” value ([2]; 5 mg QD, MMRM, Week 8) was 0.07 (0.81) and the “ADAS-cog (11-Item) Total Score LS Mean (SE) of Change from Baseline” value ([2]; 5 mg QD, MMRM, Week 8) was −0.49 (0.57). The “ADAS-cog (11-Item) Total Score Difference From Placebo LS Mean (SE) of Difference” value ([2]; 5 mg QD, MMRM, Week 12) was 0.03 (0.90), the “ADAS-cog (11-Item) Total Score LS Mean (SE) of Change from Baseline” value ([2]; 5 mg QD, MMRM, Week 12) was −0.80 (0.64) and the “ADAS-cog (11-Item) Total Score Observed Mean (SD) Final” value ([2]; 5 mg QD) was 24.30 (10.50). The “cognition relative to placebo, ADAS-cog (11-item) MMRM (in words)” value ([2]; 5 mg, over the 12 weeks) was “no improvement in cognition relative to placebo”, the “cognition relative to placebo, ADAS-cog (11-item) MMRM (in words)” value ([2]; 25 mg) was “trend toward statistical significance at Weeks 4 and 8 in cognitive improvement” and the “ADAS-cog (11-Item) Total Score Difference From Placebo LS Mean (SE) of Difference” value [2, 5] was −1.19. The “ADAS-cog (11-Item) Total Score LS Mean (SE) of Change” value [2, 5] was −1.86 (0.64), the “ADAS-cog (11-Item) Total Score Observed Mean (SD) change” value ([2]; 25 mg QD, Change to Week 4) was −1.18 (4.29) and the “ADAS-cog (11-Item) Total Score Observed Mean (SD) change” value ([2]; 25 mg QD, Change to Week 8) was −1.94 (5.12). For the same molecule, the “ADAS-cog (11-Item) Total Score Observed Mean (SD) change” value ([2]; 25 mg QD, Change to Week 12) was −2.12 (5.53), the “ADAS-cog (11-Item) Total Score Difference From Placebo LS Mean (SE) of Difference” value ([2]; 25 mg QD, MMRM, Week 4) was −0.84 (0.65) and the “ADAS-cog (11-Item) Total Score LS Mean (SE) of Change from Baseline” value ([2]; 25 mg QD, MMRM, Week 4) was −0.94 (0.46). For the same molecule, the “ADAS-cog (11-Item) Total Score Difference From Placebo LS Mean (SE) of Difference” value ([2]; 25 mg QD, MMRM, Week 8) was −1.11 (0.82), the “ADAS-cog (11-Item) Total Score LS Mean (SE) of Change from Baseline” value ([2]; 25 mg QD, MMRM, Week 8) was −1.67 (0.58) and the “ADAS-cog (11-Item) Total Score Difference From Placebo LS Mean (SE) of Difference” value ([2]; 25 mg QD, MMRM, Week 12) was −1.14 (0.91). The “ADAS-cog (11-Item) Total Score LS Mean (SE) of Change from Baseline” value ([2]; 25 mg QD, MMRM, Week 12) was −1.97 (0.65), the “ADAS-cog (11-Item) Total Score Observed Mean (SD) Final” value ([2]; 25 mg QD) was 26.61 (12.09) and the “efficacy (in words)” value ([2]; 25 mg dose, 12 weeks) was “Evidence for efficacy”. The “efficacy in treatment of core symptoms of Alzheimer's disease in human patients (summary in words)” value [2] was “signal for efficacy”, the “efficacy in treatment of core symptoms of Alzheimer's disease in human patients (summary in words)” value ([2]; listed as ABT-126) was “statistically significant efficacy compared to placebo” and the “tolerability in subjects with AD” value ([3]; 5 mg and 25 mg QD (doses up to 25 mg QD), 12 weeks) was “generally well tolerated”. For the same molecule, the “changes in vital signs, ECG parameters or laboratory assessments” value ([3]; 5 mg and 25 mg QD, 12 weeks) was “no consistent clinically meaningful changes”, the “serious adverse events considered by the investigator to be related” value ([3]; 5 mg and 25 mg QD, 12 weeks) was “none that were considered by the investigator to be related” and the “dose dependence of adverse events” value ([3]; 25 mg group) was “no evidence for a dose-dependent increase in adverse events”.
